From patent US20210386367A1, “DEVICES AND SYSTEMS FOR GASTROINTESTINAL MICROBIOME DETECTION AND MANIPULATION” (Progenity, Inc., priority 2018, published 2021)
Values after ≈ are worked out from the molar mass of the structure shown. Where two headings read alike, the source gives them in different places.

How the values were obtained:
Type in all cases: cell-based
[1] = test system: Streptococcus spp. clinical isolates; test: MIC distribution against clinical isolates; conditions: 54 Streptococcus spp. isolates
Procedure, shortened: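 Clinical Streptococcus isolates (S. pyogenes, S. agalactiae and Viridans group streptococci) were tested for antimicrobial susceptibility by broth or agar dilution. Each isolate was inoculated into media holding serial dilutions of the antimicrobial agent and incubated, e.g., overnight at 37° C. Growth was then examined, and the MIC was the lowest concentration preventing growth.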

[2] = test system: Streptococcus pyogenes clinical isolates; test: MIC distribution against clinical isolates; conditions: 19 S. pyogenes isolates
Procedure, shortened: (§1)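 MIC is the lowest agent concentration preventing growth, determined by broth or agar dilution with serial compound dilutions and incubation under appropriate conditions (e.g., overnight at 37° C.). MIC90 is the concentration inhibiting ≥90% of isolates in the test population.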

[3] = test system: Viridans group Streptococci clinical isolates; test: MIC distribution against clinical isolates; conditions: 15 Viridans group Streptococci isolates
Procedure, shortened: as §1

[4] = test system: Enterococcus faecalis; test: Broth microdilution MIC, 50 clinical isolates
Procedure, shortened: (§2)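 Medium: cation-adjusted MHB, plus 3% lysed horse blood for streptococci, which were incubated with CO2 planchets. Final inoculum approx. 5×10^5 CFU/mL; serial two-fold drug dilutions per CLSI.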

[5] = test system: Staphylococcus aureus; test: Broth microdilution MIC, 50 clinical isolates (28 MRSA); conditions: for MIC50: read-out: MIC50
Procedure, shortened: as §2

[6] = test system: Streptococcus spp.; test: Broth microdilution MIC, 54 clinical isolates; conditions: for Mode: modal MIC
Procedure, shortened: as §2

[7] = test system: Streptococcus pyogenes; test: Broth microdilution MIC, 19 clinical isolates; conditions: for MIC50 / MIC90: Streptococcus pyogenes; for MIC50: read-out: MIC50; for MIC90: read-out: MIC90
Procedure, shortened: as §2

[8] = test system: Streptococcus agalactiae; test: Broth microdilution MIC, 20 clinical isolates; conditions: for MIC50: read-out: MIC50; for MIC90: read-out: MIC90
Procedure, shortened: as §2

[9] = Enterococcus faecalis, read-out: MIC50
[10] = Enterococcus faecalis, read-out: MIC90
[11] = Staphylococcus aureus, read-out: MIC90
[12] = 54 Streptococcus spp. clinical isolates
[13] = 20 Streptococcus agalactiae clinical isolates

CO/N=C(\C(=O)N[C@@H]1C(=O)N2C(C(=O)O)=C(CSc3nc(=O)c(=O)[nH]n3C)CS[C@H]12)c1csc(N)n1 [ceftriaxone]
Cumulative percentage of isolates inhibited at MIC ([1]; MIC 0.008 μg/mL): 1.9%
Number of test isolates at MIC ([1]; MIC 0.008 μg/mL): 1
Cumulative percentage of isolates inhibited at MIC ([1]; MIC 0.015 μg/mL): 35.2%
Number of test isolates at MIC ([1]; MIC 0.015 μg/mL): 18
Cumulative percentage of isolates inhibited at MIC ([1]; MIC 0.03 μg/mL): 51.9%
Number of test isolates at MIC ([1]; MIC 0.03 μg/mL): 9
Cumulative percentage of isolates inhibited at MIC ([1]; MIC 0.06 μg/mL): 87.0%
Number of test isolates at MIC ([1]; MIC 0.06 μg/mL): 19
Cumulative percentage of isolates inhibited at MIC ([1]; MIC 0.5 μg/mL): 98.1%
Number of test isolates at MIC ([1]; MIC 0.5 μg/mL): 1
Cumulative percentage of isolates inhibited at MIC ([1]; MIC 1 μg/mL): 100.0%
Number of test isolates at MIC ([1]; MIC 1 μg/mL): 1
Cumulative percentage of isolates inhibited at MIC ([2]; MIC 0.015 μg/mL): 84.2%
Number of test isolates at MIC ([2]; MIC 0.015 μg/mL): 16
Cumulative percentage of isolates inhibited at MIC ([2]; MIC 0.03 μg/mL): 94.7%
Number of test isolates at MIC ([2]; MIC 0.03 μg/mL): 2
Cumulative percentage of isolates inhibited at MIC ([2]; MIC 0.06 μg/mL): 100.0%
Number of test isolates at MIC ([2]; MIC 0.06 μg/mL): 1
Cumulative percentage of isolates inhibited at MIC ([3]; MIC 0.008 μg/mL): 6.7%
Number of test isolates at MIC ([3]; MIC 0.008 μg/mL): 1
Cumulative percentage of isolates inhibited at MIC ([3]; MIC 0.015 μg/mL): 20.0%
Number of test isolates at MIC ([3]; MIC 0.015 μg/mL): 2
Cumulative percentage of isolates inhibited at MIC ([3]; MIC 0.03 μg/mL): 33.3%
Number of test isolates at MIC ([3]; MIC 0.03 μg/mL): 2
Cumulative percentage of isolates inhibited at MIC ([3]; MIC 0.06 μg/mL): 66.7%
Number of test isolates at MIC ([3]; MIC 0.06 μg/mL): 5
Cumulative percentage of isolates inhibited at MIC ([3]; MIC 0.5 μg/mL): 93.3%
Number of test isolates at MIC ([3]; MIC 0.5 μg/mL): 1
Cumulative percentage of isolates inhibited at MIC ([3]; MIC 1 μg/mL): 100.0%
Number of test isolates at MIC ([3]; MIC 1 μg/mL): 1
Mode [4]: >64 µg/mL
MIC50 [4, 9]: > 64 µg/mL
MIC90 [4, 10]: > 64 µg/mL
MIC50 ([4]; listed as CTR): >64 µg/mL
MIC90 ([4]; listed as CTR): >64 µg/mL
Mode [5]: >64 µg/mL
MIC50 ([5]; Staphylococcus aureus): 32 µg/mL (≈ 57.7 µM)
MIC90 [5, 11]: > 64 µg/mL
MIC90 ([5]; listed as CTR): >64 µg/mL
isolates susceptible [6]: 100%
MIC50 [6, 12]: 0.03 µg/mL (≈ 0.0541 µM)
MIC90 [6, 12]: 0.12 µg/mL (≈ 0.216 µM)
MIC range [6, 12]: 0.008 to 1 µg/mL
% S ([6]; 54 Streptococcus spp. clinical isolates, MXF by FDA breakpoints): 100%
MIC50 ([6]; Streptococcus, read-out: MIC50): 0.03 µg/mL (≈ 0.0541 µM)
MIC90 ([6]; Streptococcus, read-out: MIC90): 0.12 µg/mL (≈ 0.216 µM)
Mode [6, 12]: 0.06 µg/mL
% S [7]: 100%
MIC range [7]: 0.015 to 0.06 µg/mL
Mode [7]: 0.015 µg/mL
MIC50 [7]: 0.015 µg/mL (≈ 0.027 µM)
MIC90 [7]: 0.03 µg/mL (≈ 0.0541 µM)
MIC50 ([8]; Streptococcus agalactiae): 0.06 µg/mL (≈ 0.108 µM)
MIC90 ([8]; Streptococcus agalactiae): 0.06 µg/mL (≈ 0.108 µM)

COc1c(N2C[C@@H]3CCCN[C@@H]3C2)c(F)cc2c(=O)c(C(=O)O)cn(C3CC3)c12 [moxifloxacin]
Cumulative percentage of isolates inhibited at MIC ([1]; MIC 0.06 μg/mL): 24.1%
Number of test isolates at MIC ([1]; MIC 0.06 μg/mL): 13
Cumulative percentage of isolates inhibited at MIC ([1]; MIC 0.5 μg/mL): 90.7%
Number of test isolates at MIC ([1]; MIC 0.5 μg/mL): 1
Cumulative percentage of isolates inhibited at MIC ([1]; MIC 2 μg/mL): 94.4%
Number of test isolates at MIC ([1]; MIC 2 μg/mL): 2
Cumulative percentage of isolates inhibited at MIC ([1]; MIC 4 μg/mL): 98.1%
Number of test isolates at MIC ([1]; MIC 4 μg/mL): 2
Cumulative percentage of isolates inhibited at MIC ([1]; MIC 8 μg/mL): 100.0%
Number of test isolates at MIC ([1]; MIC 8 μg/mL): 1
Cumulative percentage of isolates inhibited at MIC ([2]; MIC 0.06 μg/mL): 31.6%
Number of test isolates at MIC ([2]; MIC 0.06 μg/mL): 6
Cumulative percentage of isolates inhibited at MIC ([2]; MIC 0.5 μg/mL): 100.0%
Number of test isolates at MIC ([2]; MIC 0.5 μg/mL): 1
Cumulative percentage of isolates inhibited at MIC ([3]; MIC 0.06 μg/mL): 26.7%
Number of test isolates at MIC ([3]; MIC 0.06 μg/mL): 4
Cumulative percentage of isolates inhibited at MIC ([3]; MIC 2 μg/mL): 80.0%
Number of test isolates at MIC ([3]; MIC 2 μg/mL): 2
Cumulative percentage of isolates inhibited at MIC ([3]; MIC 4 μg/mL): 93.3%
Number of test isolates at MIC ([3]; MIC 4 μg/mL): 2
Cumulative percentage of isolates inhibited at MIC ([3]; MIC 8 μg/mL): 100.0%
Number of test isolates at MIC ([3]; MIC 8 μg/mL): 1
Mode [4]: >8 µg/mL
MIC50 [4, 9]: 0.5 µg/mL (≈ 1.25 µM)
MIC90 [4, 10]: > 8 µg/mL
Mode [5]: 1 µg/mL
MIC50 ([5]; Staphylococcus aureus): 0.12 µg/mL (≈ 0.299 µM)
MIC90 [5, 11]: 2 µg/mL (≈ 4.98 µM)
MIC range [6, 12]: 0.06 to 8 µg/mL
MIC50 ([6]; 54 Streptococcus spp. clinical isolates, read-out: MIC50): 0.12 µg/mL (≈ 0.299 µM)
MIC90 ([6]; 54 Streptococcus spp. clinical isolates, read-out: MIC90): 0.5 µg/mL (≈ 1.25 µM)
Mode [6, 12]: 0.12 µg/mL
MIC range [7]: 0.06 to 0.5 µg/mL
Mode [7]: 0.12 µg/mL
MIC50 [7]: 0.12 µg/mL (≈ 0.299 µM)
MIC90 [7]: 0.25 µg/mL (≈ 0.623 µM)
MIC range [8, 13]: 0.06 to 0.25 µg/mL
MIC50 [8, 13]: 0.12 µg/mL (≈ 0.299 µM)
MIC90 [8, 13]: 0.12 µg/mL (≈ 0.299 µM)
Mode ([8]; modal MIC, 20 Streptococcus agalactiae clinical isolates): 0.12 µg/mL
